According to US6555533B2, “Use of certain substituted caprolactams in treating tumors” (Novartis AG, priority 1998, dated 2003):
Where two headings read alike, the source gives them in different places. Marks after values point to notes of the source that are not given here.

What was measured:
PC-3 prostate carcinoma = experiment: Anchorage Dependent Growth Monolayer Assay (ADGMA), PC-3; type: cell-based, human; details: Homo sapiens, 72 h; 3-day exposure, MTS readout; read-out: IC50 (average±S.D.) PC-3
Protocol: (§1) As indicated above, all of the compounds of formula I, and their corresponding pharmaceutically acceptable acid addition salts, are anti-tumor agents and are, therefore, useful in inhibiting the growth of various lymphomas, sarcomas, carcinomas, myelomas, and leukemia cell lines.
(§2) The ADGMA compares the number of viable cells following a 3-day exposure to a test compound relative to a number of cells present at the time the test compound was added. […] The absorbance at 490 nm (A490) of the formazan derivative is proportional to the number of viable cells. The IC50 for a test compound is the concentration of compound required to reduce the final cell number to 50% of the final control cell number. If cell proliferation is inhibited, the assay further defines compounds as cytostatic (cell number after 3-day compound incubation >cell number at time of compound addition) or cytotoxic (cell number after 3-day compound incubation <cell number at time of compound addition).
(§3) A549, HCT-116 and PC-3 cells were maintained in RPMI 1640 containing 5% FBS, […], 1 nM β-estradiol, 1 nM testosterone, 100 units/mL penicillin and 100 ug/mL streptomycin.
(§4) Cell lines are trypsinized and counted using a Coulter counter to determine plating densities. Cells are then plated in their respective maintenance media (100 μL/well) in 96 well plates at the following densities: MDA-MB-435, 3,000 cells/well; A549 and HCT-116, 700 cells/well; are PC-3, 2500 cells/well. The number of cells plates as determined in preliminary experiments, results in cell densities of 75-90% of confluency by 4 days after plating. Initial cell densities, assayed one day after plating, are roughly 0.15-0.20 absorbance units greater than the media blank. Ninety-six well plates are seeded on day 0 and the test compounds are added on day 1. A control plate is created for each cell line that receives media only in row A and cells in row B. One day following plating, test compounds are added (in a final volume of 100 μL) to the test plates. Control plates receive 10 μL MTS mixture (prepared fresh on day of addition to cell plates at a ratio of 10 μL of a 0.92 mg/mL solution of PMS to a 190 μL of a 2 mg/mL solution of MTS) and 100 μL media. A490 of control plates is read 4 h after MTS addition to determine initial cell density values for each cell line. Three days after addition of test compound, 10 μL/well of MTS mixture is added to the test plates and A490 is read 4 h later. A490 values for wells containing cells are corrected for media absorbance, then normalized to initial density readings to determine percent net growth. IC50 values are determined from graphs of percent net growth as a function of compound concentration. Percent net growth is calculated as (Cell+Drug A490−Initial A490/Cell+Drug Vehicle A490−Initial A490).

HCT-116 tumor xenografts = experiment: HCT-116 colon carcinoma xenograft model; type: in vivo, athymic (nu/nu) mice
Protocol: Positive controls are carried out with 5-fluorouracil administered 1 time per week i.v.

[1] = tested on: A549 non-small cell lung carcinoma; experiment: Anchorage Dependent Growth Monolayer Assay (ADGMA), A549; type: cell-based, human; details: Homo sapiens, A549, 72 h; 3-day exposure, MTS readout; read-out: IC50 (average±S.D.) A549
Protocol: as §1, §2, §3, §4

[2] = tested on: MDA-MB-435 breast carcinoma; experiment: Anchorage Dependent Growth Monolayer Assay (ADGMA), MDA-MB-435; type: cell-based, human; details: Homo sapiens, MDA-MB-435, 72 h; 3-day exposure, MTS readout; read-out: IC50 (average±S.D.) MDA-MB-435
Protocol: as §1, §2
The MDA-MB-435 breast carcinoma line was obtained from the American Type Culture Collection (ATCC) and used between passages 4-20 following thawing. MDA-MB-435 breast carcinoma was maintained and plated in DME/F12 medium containing 10% fetal bovine serum, 15 mM HEPES (pH=7.4), 100 units/mL penicillin, and 100 μg/mL streptomycin.
as §4

[3] = tested on: MDA-MB-435 tumor xenografts; experiment: MDA-MB-435 breast carcinoma xenograft model; type: in vivo, athymic (nu/nu) mice
Protocol: Positive controls are carried out with doxorubicin administered 3 times per week i.v.
The following results were obtained for compounds of Ex.1-Ex.12 tested against MDA-MB-435 tumor xenografts 3×/week for 3 weeks: […]

PC-3 tumor xenografts = experiment: PC-3 prostate carcinoma xenograft model; type: in vivo, athymic (nu/nu) mice
HCT-116 colon carcinoma = experiment: Anchorage Dependent Growth Monolayer Assay (ADGMA), HCT-116; type: cell-based, human; details: Homo sapiens, HCT-116, 72 h; 3-day exposure, MTS readout; read-out: IC50 (average±S.D.) HCT-116
Protocol: as §1, §2, §3, §4

A549 tumor xenografts = tested on: A549 tumor xenografts
Text: Utilizing this model, one can measure the ability of test compounds to inhibit the growth of human tumor xenografts growing subcutaneously (s.c.) in athymic nude mice. The histologic tumor types employed were MDA-MB-435 breast, A549 non-small cell lung, HCT-116 colon and PC-3 prostate carcinomas.
A549 non-small cell lung carcinoma xenograft model: Briefly, 10 million cells were implanted s.c. into the right flank of athymic (nu/nu) mice, and were allowed to grow until a mass of approximately 120 mm^3 was established. The test compounds are administered three times per week intravenously (i.v.) for three weeks in 5% dextrose, 10%DMSO in water. The test compounds are administered in dose-response fashion in order to evaluate and document the full potential range of activity (efficacy and toxicity) for a given compound. Positive controls are carried out with mitomycin C administered 3 times per week intraperitioneally (i.p.).
Toxicity was monitored by recording average group body weights twice weekly, and by daily observation of general health. Efficacy was monitored by taking measurements of tumor length, width, and depth weekly using digital calipers coupled to automated data collectors. Mean tumor volume (MTV) at initiation of therapy was subtracted from final MTV in order to express the actual tumor growth during treatment (ΔMTV). Anti-tumor activity was expressed as %T/C (ΔMTV of treated group÷ΔMTV of control group×100). Regressions were calculated using the formula: (T/T0−1)×100%, where T is the tumor volume for the treatment group at the end of the experiment, and T0 is the tumor volume at the beginning of the experiment. Statistical significance was evaluated using a one-tailed Student's t-test (p<0.05).

[4] = 10 μmol/kg i.v. 3×/week for 3 weeks
[5] = 33 μmol/kg i.v. 3×/week for 3 weeks
[6] = 100 μmol/kg i.v. 3×/week for 3 weeks
[7] = 2 mg/kg i.v. 3 times per week (positive control)

Row | SMILES | IC50 (PC-3 prostate carcinoma) | % T/C (HCT-116 tumor xenografts; [4]) | Dead/Total (HCT-116 tumor xenografts; [4]) | Δ MTV (HCT-116 tumor xenografts; [4]) | % T/C (HCT-116 tumor xenografts; [5]) | Dead/Total (HCT-116 tumor xenografts; [5]) | Δ MTV (HCT-116 tumor xenografts; [5]) | % T/C (HCT-116 tumor xenografts; [6]) | Dead/Total (HCT-116 tumor xenografts; [6]) | Δ MTV (HCT-116 tumor xenografts; [6]) | IC50 [1] | IC50 [2] | % T/C [3, 4] | Dead/Total [3, 4] | % T/C [3, 5] | Dead/Total [3, 5] | IC50 (HCT-116 colon carcinoma) | % T/C (A549 tumor xenografts; [5]) | Dead/Total (A549 tumor xenografts; [5]) | Δ MTV (A549 tumor xenografts; [5]) | also measured
1 | CO[C@@H](C(=O)N[C@H]1CC[C@@H](OC(=O)CCc2ccccc2)CNC1=O)[C@H](O)[C@@H](O)[C@H](O)/C=C/C(C)(C)C [Ex. 4, (2R, 3R, 4S, 5R, 6E)-3,4,5-Trihydroxy-2-methoxy-8,8-dimethyl-N-[(3S, 6R)-hexahydro-2-oxo-6-(1-oxo-3-phenylpropoxy)-2H-azepin-3-yl]non-6-enamide] | 7 ± 4 nM | 70* % | 0/8 | 280 mm^3 | 22* % | 0/8 | 87 mm^3 | 11* % | 1/8 | 44 mm^3 | 20 ± 9 nM | 12 ± 14 nM | 53* % | 0/8 | 12* % | 0/8 | 7 ± 3 nM | 17* % | 0/8 | 13 mm^3 | % regression [3, 6]: 58 regression* %; Dead/Total [3, 6]: 0/8; Δ MTV [3, 6]: −23 mm^3; % T/C (PC-3 tumor xenografts; [4]): 77%; Dead/Total (PC-3 tumor xenografts; [4]): 0/8; Δ MTV (PC-3 tumor xenografts; [4]): 1722 mm^3; % T/C (PC-3 tumor xenografts; [5]): 29%; Dead/Total (PC-3 tumor xenografts; [5]): 0/8; Δ MTV (PC-3 tumor xenografts; [5]): 638 mm^3; % T/C (PC-3 tumor xenografts; [6]): 4* %; Dead/Total (PC-3 tumor xenografts; [6]): 0/8; Δ MTV (PC-3 tumor xenografts; [6]): 100 mm^3; % regression (A549 tumor xenografts; [6]): 22 regression* %; Dead/Total (A549 tumor xenografts; [6]): 1/8; Δ MTV (A549 tumor xenografts; [6]): −10 mm^3
2 | CO[C@@H](C(=O)N[C@H]1CC[C@@H](OC(=O)CCc2cccnc2)CNC1=O)[C@H](O)[C@@H](O)[C@H](O)/C=C/C(C)(C)C [Ex. 5, (2R, 3R, 4S, 5R, 6E)-3,4,5-Trihydroxy-2-methoxy-8,8-dimethyl-N-[(3S, 6R)-hexahydro-2-oxo-6-(1-oxo-3-[3-pyridyl]propoxy)-2H-azepin-3-yl]non-6-enamide] | 348 ± 26 nM | 93% | 0/8 | 376 mm^3 | 67* % | 0/8 | 270 mm^3 | 28* % | 0/8 | 111 mm^3 | 1040 ± 758 nM | – | 92% | 0/8 | 44* % | 0/8 | 464 ± 142 nM | 46% | 0/8 | 35 mm^3 | % T/C (A549 tumor xenografts; [4]): 50%; Dead/Total (A549 tumor xenografts; [4]): 0/8; Δ MTV (A549 tumor xenografts; [4]): 38 mm^3; % T/C (A549 tumor xenografts; [6]): 24* %; Dead/Total (A549 tumor xenografts; [6]): 0/8; Δ MTV (A549 tumor xenografts; [6]): 18 mm^3
3 | COc1cccc2c1C(=O)c1c(O)c3c(c(O)c1C2=O)C[C@@](O)(C(=O)CO)C[C@@H]3O[C@H]1C[C@H](N)[C@H](O)[C@H](C)O1 [doxorubicin, reference compound] | 327 ± 123 nM | – | – | – | – | – | – | – | – | – | 504 ± 320 nM | 399 ± 314 nM | – | – | – | – | 39 ± 6 nM | – | – | – | % T/C [3, 7]: 42* %; Dead/Total [3, 7]: 0/8
4 | CO[C@@H](C(=O)N[C@H]1CC[C@@H](OC(=O)C2CCCCC2)CNC1=O)[C@H](O)[C@@H](O)[C@H](O)/C=C/C(C)(C)C [Ex. 1, (2R, 3R, 4S, 5R, 6E)-3,4,5-Trihydroxy-2-methoxy-8,8-dimethyl-N-[(3S, 6R)-hexahydro-2-oxo-6-(cyclohexylcarbonyl)oxy-2H-azepin-3-yl]non-6-enamide] | 39 ± 13 nM | 89% | 0/8 | 360 mm^3 | 35* % | 0/8 | 142 mm^3 | 10* % | 0/8 | 42 mm^3 | 78 ± 38 nM | 41 ± 26 nM | 61* % | 0/8 | 24* % | 0/8 | 41 ± 3 nM | 38% | 0/8 | 29 mm^3 | % regression [3, 6]: 29 regression* %; Dead/Total [3, 6]: 0/8; Δ MTV [3, 6]: −11 mm^3; % T/C (PC-3 tumor xenografts; [4]): 87%; Dead/Total (PC-3 tumor xenografts; [4]): 0/7; Δ MTV (PC-3 tumor xenografts; [4]): 1931 mm^3; % T/C (PC-3 tumor xenografts; [5]): 32%; Dead/Total (PC-3 tumor xenografts; [5]): 0/8; Δ MTV (PC-3 tumor xenografts; [5]): 718 mm^3; % T/C (PC-3 tumor xenografts; [6]): 8* %; Dead/Total (PC-3 tumor xenografts; [6]): 1/8; Δ MTV (PC-3 tumor xenografts; [6]): 185 mm^3; % T/C (A549 tumor xenografts; [4]): 42%; Dead/Total (A549 tumor xenografts; [4]): 0/8; Δ MTV (A549 tumor xenografts; [4]): 32 mm^3; % T/C (A549 tumor xenografts; [6]): 14* %; Dead/Total (A549 tumor xenografts; [6]): 1/8; Δ MTV (A549 tumor xenografts; [6]): 11 mm^3
